US5350574A, “Derivatives of cyclosporina A, antibodies directed thereto and uses thereof” (The Trustees of Columbia University in the City of New York, priority 1991, dated 1994)
Entries after “also recorded” stand apart in the source; their conditions may differ.

Assays:
[1] = test system: rabbit antibody R575 (anti-CsA); assay: Inhibition RIA for antibody specificity with CsA analogues; assay type: binding; conditions: for IC50: read-out: IC50 (Concentration for 50% inhibition), inhibition of [3H]dihydro CsA binding to R575, overnight at 4° C.; for affinity group for the antibodies (inhibition RIA): result in words
Experimental: Serum antibodies were detected by a modification of the published radioimmunoassay (5, 12 ). […] Binding by diluted preimmune serum was used as a control. Free and bound ligand were separated with charcoal supplied by Sandoz according to their procedure.
The cyclosporin derivatives were dissolved in 100% ethanol at a concentration of 5.0 mg/ml, stored at -20° C., and diluted to final concentrations of 0.27 nM to 2.7 μM in Sandoz buffer B for the inhibition experiments.

EL-4 cells = assay: Cell agglutination assay, EL-4 cells; assay type: cell-based; conditions: inhibitor concentration not given
Experimental: (§1) T or B cells (4-8×10^4 cells) were added to 200 μl of medium (see above) containing 50 μl of either PBS (vehicle control), aminodextran, BBa-aminodextran, or CsA-BBa-aminodextran at a concentration of 5×10^-7 M, in the presence or absence of various inhibitors or solvent controls, gently agitated on a platform shaker for 15 minutes at 25° C., incubated without agitation for 2-3 hours at 25° C., placed in a refrigerator and examined for agglutination periodically. The end points can begin to be seen after about 2-3 hours.

DO-11.10 = assay: Cell agglutination assay, DO-11.10 T-cell hybridoma; assay type: cell-based
Experimental: as §1

32-6.F12 = assay: Cell agglutination assay, 32-6.F12 T-cell hybridoma; assay type: cell-based
Experimental: as §1

SMILES	IC50 [1] [nM]	affinity group for the antibodies (inhibition RIA) [1]	inhibition of agglutination of EL-4 cells by CsA-BBa-aminodextran (EL-4 cells)	inhibition of agglutination of DO-11.10 cells by CsA-BBa-aminodextran (DO-11.10)	inhibition of agglutination of 32-6.F12 cells by CsA-BBa-aminodextran (32-6.F12)	inhibition of [3H]CsA binding obtainable ([1]; maximal inhibition by competing derivative)
C/C=C/C[C@@H](C)[C@@H](O)[C@H]1C(=O)N[C@@H](CC)C(=O)N(C)CC(=O)N(C)[C@@H](CC(C)C)C(=O)N[C@@H](C(C)C)C(=O)N(C)[C@H](C)C(=O)N[C@@H](C)C(=O)N[C@H](C)C(=O)N(C)[C@@H](CC(C)C)C(=O)N(C)[C@@H](CC(C)C)C(=O)N(C)[C@@H](C(C)C)C(=O)N1C [Derivative 039]	18	Moderate affinities	–	–	–	–
C/C=C/C[C@@H](C)[C@@H](O)[C@H]1C(=O)N[C@@H]([C@@H](C)O)C(=O)N(C)CC(=O)N(C)[C@@H](CC(C)C)C(=O)N[C@@H](C(C)C)C(=O)N(C)[C@@H](CC(C)C)C(=O)N[C@@H](C)C(=O)N[C@H](C)C(=O)N(C)[C@@H](CC(C)C)C(=O)N(C)[C@@H](CC(C)C)C(=O)N(C)[C@@H](C(C)C)C(=O)N1C [CsC]	11.5	Moderate affinities	–	–	–	–
C/C=C/C[C@@H](C)[C@@H](O)[C@H]1C(=O)N[C@@H](C(C)C)C(=O)N(C)CC(=O)N(C)[C@@H](CC(C)C)C(=O)N[C@@H](C(C)C)C(=O)N(C)[C@@H](CC(C)C)C(=O)N[C@@H](C)C(=O)N[C@H](C)C(=O)N(C)[C@@H](CC(C)C)C(=O)N(C)[C@@H](CC(C)C)C(=O)N(C)[C@@H](C(C)C)C(=O)N1C [CsD]	4.3	high affinity group; also recorded: bind best	–	–	–	–
C/C=C/C[C@@H](C)[C@@H](O)[C@H]1C(=O)N[C@@H](CC)C(=O)N2CCC[C@H]2C(=O)N(C)[C@@H](CC(C)C)C(=O)N[C@@H](C(C)C)C(=O)N(C)[C@@H](CC(C)C)C(=O)N[C@@H](C)C(=O)N[C@H](C)C(=O)N(C)[C@@H](CC(C)C)C(=O)N(C)[C@@H](CC(C)C)C(=O)N(C)[C@@H](C(C)C)C(=O)N1C [Derivative 582]	12	Moderate affinities	–	–	–	–
C/C=C/C[C@@H](C)[C@@H](O)[C@H]1C(=O)N[C@@H](CC)C(=O)N(C)CC(=O)N(C)[C@@H](CC(C)C)C(=O)N[C@@H](C(C)C)C(=O)N(C)[C@@H](CC(C)C)C(=O)N[C@@H](C)C(=O)N[C@H](C)C(=O)N(C)[C@@H](CC(C)C)C(=O)N(C)[C@@H](CC(C)C)C(=O)N(C)[C@@H]([C@@H](C)CC)C(=O)N1C [Derivative 032]	7	high affinity group; also recorded: bind best	–	–	–	–
O=C(O)c1ccc(C(=O)c2ccccc2)cc1 [BBa, 4-Benzyoylbenzoic acid]	–	–	no inhibition	not	not	–
C/C=C/C[C@@H](C)[C@@H](OC(C)=O)[C@H]1C(=O)N[C@@H](CC)C(=O)N(C)CC(=O)N(C)[C@@H](CC(C)C)C(=O)N[C@@H](C(C)C)C(=O)N(C)[C@@H](CC(C)C)C(=O)N[C@@H](C)C(=O)N[C@H](C)C(=O)N(C)[C@@H](CC(C)C)C(=O)N(C)[C@@H](CC(C)C)C(=O)N(C)[C@@H](C(C)C)C(=O)N1C [Derivative 243]	6	high affinity group; also recorded: bind best	–	–	–	–
C/C=C/C[C@@H](C)[C@@H](O)[C@H]1C(=O)N[C@@H]([C@@H](C)OC(C)=O)C(=O)N(C)CC(=O)N(C)[C@@H](CC(C)C)C(=O)N[C@@H](C(C)C)C(=O)N(C)[C@@H](CC(C)C)C(=O)N[C@@H](C)C(=O)N[C@H](C)C(=O)N(C)[C@@H](CC(C)C)C(=O)N(C)[C@@H](CC(C)C)C(=O)N(C)[C@@H](C(C)C)C(=O)N1C [Derivative 665]	4.8	high affinity group; also recorded: bind best	–	–	–	–
C/C=C/C[C@@H](C)[C@@H](O)[C@H]1C(=O)N[C@@H](CC)C(=O)N(C)CC(=O)N(C)[C@@H](CC(C)C)C(=O)N[C@@H](C(C)C)C(=O)N(C)[C@@H](CC(C)C)C(=O)N[C@@H](C)C(=O)N[C@H](COC(C)(C)C)C(=O)N(C)[C@@H](CC(C)C)C(=O)N(C)[C@@H](CC(C)C)C(=O)N(C)[C@@H](C(C)C)C(=O)N1C [Derivative 717]	2700	inhibits very poorly; also recorded: low affinity	–	–	–	more than 50%
